According to patent US6479460B1, “Synthetic peptides and pseudopeptides having osteogenic activity and pharmaceutical compositions containing the same” (Yissum Research Development Company of the Hebrew …, priority 1996, dated 2002):
Entries after “also recorded” stand apart in the source; their conditions may differ. Where no end group is shown, it is not given here. [ ]: non-standard residue; d: D form. The star is where a group is joined. Biotin = O=C1N[C@H]2[C@H](CS[C@H]2CCCCC(=O)*)N1; Bpa = N[C@@H](Cc1ccc(C(=O)c2ccccc2)cc1)C(=O)O; Tyr(3-I) = N[C@@H](Cc1ccc(O)c(I)c1)C(=O)O; Desaminotyrosyl = O=C(CCc1ccc(O)cc1)*; NMeY = CN[C@@H](Cc1ccc(O)cc1)C(=O)O; Hexanoyl = CCCCCC(=O)*; NHCH2CH2OMe = COCCN*; GABA = NCCCC(=O)O; βAla = NCCC(=O)O

Columns and labels:
[1] = tested on: osteoblastic MC3T3 E1 and fibroblastic NIH 3T3 cells; experiment: Proliferation assay, text statements not split by cell line; format: cell-based; conditions: for OGP-like proliferative activity (in words): in vitro, compared to OGP(1-14) or parent analog
Procedure: (§1) The effect of OGP analogs on osteoblastic MC3T3 E1 and fibroblastic NIH 3T3 cell proliferation was measured as before [Bab, I., et al (1992) EMBO J. 11:1867]. Some of the analogs were subjected to a dose response analysis. Otherwise the analog concentration was 10^−13M and 10^−11M in the MC3T3 E1 and NIH3T3 cell cultures, respectively. The mean cell number in triplicate culture wells was expressed as percent of a positive control triplicate dosed with OGP(1-14) (SEQ ID NO: 1). Experiments testing one dose per cell line were repeated at least four times and the activity of individual analogs expressed as the mean of results and 95% confidence limit obtained in these repetitive experiments.

[2] = tested on: fibroblastic NIH 3T3 cells; experiment: Proliferation assay, fibroblastic NIH 3T3 cells; format: cell-based; conditions: analog concentration 10^−11M; mean cell number relative to positive control OGP(1-14) = 1.00
Source text: (§2) Some of the analogs were subjected to a dose response analysis.

[3] = tested on: osteoblastic MC3T3 E1 cells; experiment: Proliferation assay, osteoblastic MC3T3 E1 cells; format: cell-based; conditions: for Relative in vitro potency (95% confidence limit) MC3T3 E1 cells: analog concentration 10^−13M, mean cell number relative to positive control OGP(1-14) = 1.00; for analog concentration evoking the peak inhibitory response / anti-proliferative activity (in words): absence of exogenous OGP, FIG. 8
Source text: as §2

[4] = tested on: ovariectomized rats; experiment: Number of bone marrow derived osteoblastic colonies from ovariectomized rats; format: in vivo, Sabra rats; conditions: OVX rats, 100 ng/day/rat subcutaneous daily for eight weeks, FIG. 6
Procedure: Twenty five female Sabra rats weighing 250 g each were subjected to bilateral ovariectomy (OVX). Additional five control animals underwent sham OVX. All animals were left untreated for 30 days. Then the OVX animals were divided into five groups, each consisting of five rats. All animals were injected subcutaneously in the nape daily for eight weeks with following solutions: One group was given to OGP(10-14) (SEQ ID NO: 61), 100 ng/day/rat. A second group was given desamino[Tyr^10]OGP(10-14) (SEQ ID NO: 4), 100 ng/day/rat. A third group was given c(Tyr-Gly-Phe-Gly-Gly) (SEQ ID NO: 35), 100 ng/day/rat. The fourth group was given retro OGP ([…] (SEQ ID NO: 60), 300 ng/day/rat. All compounds were dissolved in PBS. An additional control OVX group was given the PBS solvent only. After termination of treatment the animals were killed and the femoral and tibial bone marrow from both posterior limbs was pooled and transferred to alpha minimal essential medium (αMEM). Bone marrow cell cultures were set in 35 mm dishes, 10 dishes per animal, as described previously [Rickard, D. J., et al (1994) Biology, 161:218]. The total number of fibroblastic colonies (CFU-f) formed was determined after three weeks in culture. Immediately after, the CFU-f cultures were stained for alkaline phosphates and co-stained for mineral with alizarin-red-S. The alizarin-red-S positive colonies were considered osteoblastic. Their frequency was expressed as their percentage of the total numbers of colonies. The value for each animal was calculated as the mean percentage obtained in the 10 dishes.

[5] = tested on: ovariectomized mice; experiment: Osteogenic effect of OGP analogs in ovariectomized mice; format: in vivo, C57B1/6 mice; conditions: OVX mice, subcutaneous daily for six weeks, proximal tibial metaphysis, FIG. 5
Procedure: Thirty two female C57B1/6 mice weighing 25 gm underwent conventional bilateral ovariectomy (OVX). Additional eight control animals were subjected to sham OVX: the anterior abdominal wall was opened and the ovaries exposed but left intact. All animals were left untreated for 30 days. The OVX animals were then divided into four groups each consisting of eight mice. All animals were injected subcutaneously in the nape daily for six weeks with the following solutions: One group was given OGP(1-14) (SEQ ID NO: 1), 30 ng/day/mouse. A second group received OGP(10-14) (SEQ ID NO: 61), 10 ng/day/mouse. A third group was given desamino[Tyr^10]OGP(10-14) (SEQ ID NO: 4). All compounds were dissolved in phosphate buffered saline (PBS). An additional control OVX group was given the PBS solvent only. One day after termination of treatment the animals were killed and the tibial bones separated, fixed in phosphate buffered formalin and subjected to conventional decalcified histological processing. Sections through the midsagital region of the tibia were stained with Masson trichrome. Bone volume was determined in the secondary spongiosa of the proximal metaphysis in two sections 200-300 μm apart from each other in one tibia from each animal using an automated computerized image analyzer. The value for each animal was the mean reading from the two sections.

[6] = tested on: osteoblastic MC3T3 E1 cells; experiment: Inhibition of stimulatory effect of optimal OGP dose on MC3T3 E1 cells (FIG. 7); format: cell-based; conditions: cultures treated with 10^−13M synthetic OGP(1-14) plus antagonist
Procedure: All other cultures were treated with 10^−13M synthetic OGP(1-14) (SEQ ID NO: 1) and the indicated dose of antagonist. Data are mean±SE obtained in three culture wells per condition.
as §1

[7] = listed as c[Tyr-Gly-Phe-Gly-Gly]
[8] = listed as [N(CH3)-Tyr^10]OGP(9-14)

[Ala^11]OGP(11-14) (AFGG)
OGP-like proliferative activity (in words) [1]: essentially nil
Relative in vitro potency (95% confidence limit) NIH 3T3 cells [2]: 0.07
Relative in vitro potency (95% confidence limit) MC3T3 E1 cells [3]: 0.17

desamino Tyr-Gly-Phe-Gly-Gly ([Desaminotyrosyl]GFGG) [desamino[Tyr^10]OGP(10-14)]
retention of OGP-like activity ([1]; summary of Table 1): approximately 70%
Relative in vitro potency (95% confidence limit) NIH 3T3 cells [2]: 0.66
reversal of reduction in osteoprogenitor cells / osteoblastic colonies (in words) [4]: either similar or superior to the parent oligopeptides; also recorded: either similar or superior to those of OGP(1-14)
Relative in vitro potency (95% confidence limit) MC3T3 E1 cells [3]: 0.77
reversal of trabecular bone loss (in words) [5]: either similar or superior to the parent oligopeptides; also recorded: either similar or superior to those of OGP(1-14)

Nα-Ac—OGP(12-14) (Ac-Phe-Gly-Gly)
OGP-like proliferative activity (in words) [1]: essentially nil
Relative in vitro potency (95% confidence limit) NIH 3T3 cells [2]: 0.07
Relative in vitro potency (95% confidence limit) MC3T3 E1 cells [3]: 0.06

Tyr-Gly-Phe-Gly-Asp (YGFGD) [[Asp^14]OGP(10-14)]
Relative in vitro potency (95% confidence limit) NIH 3T3 cells [2]: −0.28
inhibition of stimulation by optimal OGP dose / OGP antagonism (in words) [6]: inhibitory effect at low doses
analog concentration evoking the peak inhibitory response [3]: 10^−13 M
anti-proliferative activity (in words) [3]: anti-proliferative activity; also recorded: inhibit osteoblastic MC3T3 E1 cell proliferation dose dependently at low concentrations with reversal of this inhibition at high doses
Relative in vitro potency (95% confidence limit) MC3T3 E1 cells [3]: −0.39

c(β-Ala-Tyr-Gly-Phe-Gly-Asp)-OH ([βAla]YGFGD-OH; lactam (positions not given here); also: cyclic, closure site not given here) [c(β-Ma-Tyr-Gly-Phe-Gly-Asp)-OH]
OGP-like proliferative activity (in words) [1]: essentially nil
Relative in vitro potency (95% confidence limit) NIH 3T3 cells [2]: -0.19
Relative in vitro potency (95% confidence limit) MC3T3 E1 cells [3]: −0.08

[Pro^11]OGP(10-14) (YPFGG)
OGP-like proliferative activity (in words) ([1]; listed as Table 5, analog 2): remained essentially unaltered
Relative in vitro potency (95% confidence limit) NIH 3T3 cells [2]: 0.96
Relative in vitro potency (95% confidence limit) MC3T3 E1 cells [3]: 0.89

Tyr-Gly-NH-CH(CH2C6H4(C(O)-C6H5))C(O)-Gly-Gly (YG[Bpa]GG) [[Bpa^12]OGP(10-14)]
OGP-like proliferative activity (in words) [1]: only a minor effect on the OGP-like proliferative activity
Relative in vitro potency (95% confidence limit) NIH 3T3 cells [2]: 0.86
Relative in vitro potency (95% confidence limit) MC3T3 E1 cells [3]: 0.74

Nα-biotinylcaproyl[Bpa^12]OGP(10-14) ({Biotin-Hexanoyl}-YG[Bpa]GG) [Nα-biotinylcaproyl-[BPA^12]OGP(10-14)]
OGP-like proliferative activity (in words) [1]: remained unaltered

c(Gly-Gly-Phe-Gly-Tyr) (GGFGY; cyclic)
OGP-like proliferative activity (in words) [1]: preserved or slightly improved its in vitro activity
Relative in vitro potency (95% confidence limit) NIH 3T3 cells [2]: 1.02
Relative in vitro potency (95% confidence limit) MC3T3 E1 cells [3]: 0.95

c(γ-Abu-Tyr-Gly-Phe-Gly-Asp)-OH ([GABA]YGFGD-OH; lactam (positions not given here); also: cyclic, closure site not given here)
OGP-like proliferative activity (in words) [1]: essentially nil
Relative in vitro potency (95% confidence limit) NIH 3T3 cells [2]: 0.07
Relative in vitro potency (95% confidence limit) MC3T3 E1 cells [3]: 0.13

cyclo([dY]G[dF]GG)
OGP-like proliferative activity (in words) [1]: retained a considerable level of proliferative activity
OGP-like proliferative activity (in words) ([1]; listed as c[D-Tyr-Gly-D-Phe-Gly-Gly]): considerable level of proliferative activity
Relative in vitro potency (95% confidence limit) NIH 3T3 cells [2]: 0.84
Relative in vitro potency (95% confidence limit) MC3T3 E1 cells [3]: 0.69

desamino[Tyr^10]OGP(10-13)—NH(CH2)2OMe ([Desaminotyrosyl]GFG-NHCH2CH2OMe; SMILES COCCNC(=O)CNC(=O)[C@H](Cc1ccccc1)NC(=O)CNC(=O)CCc1ccc(O)cc1)
OGP-like proliferative activity (in words) [1]: essentially nil
Relative in vitro potency (95% confidence limit) NIH 3T3 cells [2]: 0.06
Relative in vitro potency (95% confidence limit) MC3T3 E1 cells [3]: 0.03

Tyr(m-I)-Gly-NH-CH(CH2C6H4(C(O)C6H5))C(O)-Gly-Gly ([Tyr(3-I)]G[Bpa]GG) [[Tyr^10(m-I),BPA^12]OGP(10-14)]
OGP-like proliferative activity (in words) [1]: remained unaltered
Relative in vitro potency (95% confidence limit) NIH 3T3 cells [2]: 0.85
Relative in vitro potency (95% confidence limit) MC3T3 E1 cells [3]: 0.80

cyclo(GG[dF]G[dY])
OGP-like proliferative activity (in words) [1]: preserved or slightly improved its in vitro activity
Relative in vitro potency (95% confidence limit) NIH 3T3 cells [2]: 1.16
Relative in vitro potency (95% confidence limit) MC3T3 E1 cells [3]: 1.03

c(Tyr-Gly-Phe-Gly-Gly) (YGFGG; cyclic)
OGP-like proliferative activity (in words) [1]: preserved or slightly improved its in vitro activity
OGP-like proliferative activity (in words) [1, 7]: preserves the OGP-like in vitro activity
Relative in vitro potency (95% confidence limit) NIH 3T3 cells [2]: 1.12
reversal of reduction in osteoprogenitor cells / osteoblastic colonies (in words) [4]: improved over OGP(10-14)
reversal of reduction in osteoprogenitor cells / osteoblastic colonies (in words) [4, 7]: improved in vivo activity
Relative in vitro potency (95% confidence limit) MC3T3 E1 cells [3]: 0.79

Leu-N(CH3)-CH(CH2C6H4(OH))-C(O)-Gly-Phe-Gly-Gly (L[NMeY]GFGG) [N(Me)-[Tyr^10]OGP(9-14)]
Relative in vitro potency (95% confidence limit) NIH 3T3 cells [2]: −0.32
inhibition of stimulation by optimal OGP dose / OGP antagonism (in words) [6]: highly potent OGP antagonist
inhibition of stimulation by optimal OGP dose / OGP antagonism (in words) [6, 8]: inhibitory effect at low doses
analog concentration evoking the peak inhibitory response [3]: 10^−13 M
anti-proliferative activity (in words) [3]: inhibit osteoblastic MC3T3 E1 cell proliferation dose dependently at low concentrations with reversal of this inhibition at high doses
anti-proliferative activity (in words) [3, 8]: anti-proliferative activity
Relative in vitro potency (95% confidence limit) MC3T3 E1 cells [3]: −0.34

[Gly^13ψ(CH2)2Gly^14]OGP(11-14) (GFGG; also: reduced ethylene bond ψ(CH2)2 between Gly13 and Gly14)
OGP-like proliferative activity (in words) [1]: essentially nil
Relative in vitro potency (95% confidence limit) NIH 3T3 cells [2]: 0.08
Relative in vitro potency (95% confidence limit) MC3T3 E1 cells [3]: 0.15
